Data from ChEMBL document CHEMBL5724796, “Tm Shift (DSF) assay results for EUbOPEN Chemogenomics Library” (2024).
Non-standard residues stand in square brackets, D forms with d. Residues, ends and D or L forms follow the SMILES beside them. *: point of attachment. Benzoyl(4-OPh) = O=C(c1ccc(Oc2ccccc2)cc1)*; Lys(Et2) = CCN(CC)CCCC[C@H](N)C(=O)O; d(aIle) = CC[C@H](C)[C@@H](N)C(=O)O; Gly(cPent) = N[C@H](C(=O)O)C1CCCC1; NH(propargyl) = C#CCN*

Key:
[1] = molecular target: T1, Peregrin (Homo sapiens) (UniProt P55201); settings: Compound concentration 20.0 uM
T1 sequence (whole entry): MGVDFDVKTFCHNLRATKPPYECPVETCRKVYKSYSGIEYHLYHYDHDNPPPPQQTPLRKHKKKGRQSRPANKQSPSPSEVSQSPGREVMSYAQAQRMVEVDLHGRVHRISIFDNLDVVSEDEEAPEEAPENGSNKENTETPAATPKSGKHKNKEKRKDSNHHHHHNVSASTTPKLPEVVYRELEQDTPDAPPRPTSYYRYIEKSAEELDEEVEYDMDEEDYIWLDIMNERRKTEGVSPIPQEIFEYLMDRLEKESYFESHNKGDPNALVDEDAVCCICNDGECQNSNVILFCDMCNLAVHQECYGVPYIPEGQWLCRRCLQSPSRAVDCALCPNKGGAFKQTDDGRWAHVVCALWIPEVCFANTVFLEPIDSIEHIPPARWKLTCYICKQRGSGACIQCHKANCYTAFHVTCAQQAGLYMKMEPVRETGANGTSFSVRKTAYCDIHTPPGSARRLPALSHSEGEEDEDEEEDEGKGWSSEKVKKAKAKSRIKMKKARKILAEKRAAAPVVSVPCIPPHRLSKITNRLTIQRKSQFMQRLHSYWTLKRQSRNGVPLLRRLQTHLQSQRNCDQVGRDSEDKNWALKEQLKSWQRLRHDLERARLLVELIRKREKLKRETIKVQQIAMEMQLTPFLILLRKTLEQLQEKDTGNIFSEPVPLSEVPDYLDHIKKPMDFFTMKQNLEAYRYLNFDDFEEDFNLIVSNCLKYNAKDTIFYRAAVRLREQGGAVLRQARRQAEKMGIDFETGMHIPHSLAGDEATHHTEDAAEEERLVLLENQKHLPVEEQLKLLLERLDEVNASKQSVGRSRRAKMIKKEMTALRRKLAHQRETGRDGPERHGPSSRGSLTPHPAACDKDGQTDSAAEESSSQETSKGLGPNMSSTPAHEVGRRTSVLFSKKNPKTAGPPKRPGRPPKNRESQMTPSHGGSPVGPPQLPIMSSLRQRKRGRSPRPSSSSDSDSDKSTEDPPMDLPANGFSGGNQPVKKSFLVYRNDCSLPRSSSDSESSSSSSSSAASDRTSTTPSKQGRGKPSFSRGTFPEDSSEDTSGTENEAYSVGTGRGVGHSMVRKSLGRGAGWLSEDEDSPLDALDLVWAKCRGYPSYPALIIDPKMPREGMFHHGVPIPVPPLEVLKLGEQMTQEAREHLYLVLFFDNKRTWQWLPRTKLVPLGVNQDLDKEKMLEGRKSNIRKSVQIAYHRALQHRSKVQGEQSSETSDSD

[2] = molecular target: Fibroblast growth factor receptor 2 (Homo sapiens) (UniProt P21802); settings: Compound concentration 20.0 uM
Sequence of Fibroblast growth factor receptor 2 (Homo sapiens) (P21802 22-821 limits assumed): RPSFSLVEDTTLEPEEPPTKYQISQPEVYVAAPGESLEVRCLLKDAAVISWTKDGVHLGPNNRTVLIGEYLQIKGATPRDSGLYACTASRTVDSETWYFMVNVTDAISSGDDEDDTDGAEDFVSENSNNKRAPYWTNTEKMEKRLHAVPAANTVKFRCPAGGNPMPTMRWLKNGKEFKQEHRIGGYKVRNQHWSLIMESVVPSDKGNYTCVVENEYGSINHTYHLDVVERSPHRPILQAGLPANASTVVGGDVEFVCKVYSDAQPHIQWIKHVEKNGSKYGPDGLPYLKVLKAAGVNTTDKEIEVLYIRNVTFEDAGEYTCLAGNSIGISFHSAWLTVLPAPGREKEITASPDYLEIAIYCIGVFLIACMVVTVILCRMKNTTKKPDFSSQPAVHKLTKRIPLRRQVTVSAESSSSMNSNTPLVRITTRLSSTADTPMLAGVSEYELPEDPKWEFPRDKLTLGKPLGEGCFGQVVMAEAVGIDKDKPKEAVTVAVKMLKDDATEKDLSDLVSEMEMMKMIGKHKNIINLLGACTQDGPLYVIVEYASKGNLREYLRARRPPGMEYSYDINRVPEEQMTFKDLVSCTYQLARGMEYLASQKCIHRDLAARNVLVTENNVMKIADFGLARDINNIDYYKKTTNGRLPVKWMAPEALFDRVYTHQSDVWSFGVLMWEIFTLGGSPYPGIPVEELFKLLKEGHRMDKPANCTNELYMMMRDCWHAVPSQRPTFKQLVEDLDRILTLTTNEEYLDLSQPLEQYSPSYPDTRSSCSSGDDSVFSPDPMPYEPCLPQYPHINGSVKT
Description: Thermal Shift Assay. Domain: start/stop: T457-E768

| SMILES | ΔTm [1] | ΔTm [2] |
| --- | --- | --- |
| CCCOc1cc(OCCCCN(C)C)cc(Oc2cc3c(cc2NS(=O)(=O)c2ccc(OC)c(OC)c2)n(C)c(=O)n3C)c1 | 9.12 °C | 0.62 °C |
| Cc1nc(Nc2ncc(C(=O)Nc3c(C)cccc3Cl)s2)cc(N2CCN(CCO)CC2)n1 | -0.2 °C | 4.7 °C |
| C#CCNC(=O)[C@H](CO)NC(=O)[C@H](CCCCN(CC)CC)NC(=O)[C@H](NC(=O)[C@@H](NC(=O)c1ccc(Oc2ccccc2)cc1)C1CCCC1)[C@@H](C)CC ({Benzoyl(4-OPh)}-[Gly(cPent)][d(aIle)][Lys(Et2)]S-{NH(propargyl)}) | -0.64 °C | -1.33 °C |
| CNC(=O)c1cc(C(=O)NC2CC2)cn(Cc2ccccc2)c1=O | 0.73 °C | -1.38 °C |
| CCNC(=O)c1noc(-c2cc(C(C)C)c(O)cc2O)c1-c1ccc(CN2CCOCC2)cc1 | -1.1 °C | 0.62 °C |
| CCc1nc2c(C)cc(N3CCN(CC(=O)N4CC(O)C4)CC3)cn2c1N(C)c1nc(-c2ccc(F)cc2)c(C#N)s1 | -0.12 °C | 0.26 °C |
| CC[C@H](C)[C@H](NC(C)=O)C(=O)N[C@@H](CCC(=O)O)C(=O)N[C@H](C(=O)N[C@H](C=O)CC(=O)O)[C@@H](C)O (Ac-IETD-aldehyde) | -0.66 °C | 0.37 °C |
| CC(C)(C)OC(=O)NCCCCCN(CCc1ccccc1)C(=O)n1cc(-c2ccc(OC(F)(F)F)cc2)nn1 | 1.14 °C | -1.05 °C |
| Cc1nnn(C)c1-c1cnc2c3cc4cnn(C)c4cc3n([C@H](c3ccccc3)C3CCOCC3)c2c1 | -0.09 °C | -0.32 °C |
| CCCCNc1cc(C(=O)O)cc(S(N)(=O)=O)c1Oc1ccccc1 | 0.81 °C | -0.15 °C |
| NC(=O)c1ccc(Oc2ccc(C(N)=O)cc2)cc1 | -2.11 °C | 0.24 °C |
| CCCN1CCN(c2ccc(C(=O)NC3(C(=O)NCC#N)CCCCC3)cc2)CC1 | -1.09 °C | 0.76 °C |
| CCCCCCNC(=O)n1cc(Cl)c(=O)n(C(=O)OCC(C)C)c1=O | 0.68 °C | 0.1 °C |
| CS(=O)(=O)n1cc2c(n1)CN([C@H]1CO[C@H](c3cc(F)ccc3F)[C@@H](N)C1)C2 | 1.17 °C | -0.38 °C |
| CCCCCn1c(C)c(C(=O)c2cccc3ccccc23)c2ccccc21 | 2.08 °C | 0.39 °C |
| N[C@@H](CCCCNC(=O)OCc1ccc([N+](=O)[O-])cc1)C(=O)N1CCCC1 | 0.82 °C | -0.09 °C |
| COc1cc(O)c2c(c1)/C=C\C[C@H](O)[C@H](O)C(=O)/C=C\C[C@H](C)OC2=O | -1.29 °C | 2.24 °C |
| CC(C)c1c(-c2ccccc2)[nH]c2c(C#N)cnn2c1=O | 1.31 °C | -0.06 °C |
| CC(C)=C[C@H]1C[C@H](C)[C@]2(CC[C@]3(C)C[C@H]4[C@H](C(=O)C[C@@]4(C)O)/C(C=O)=C\C[C@H]32)O1 | -0.47 °C | 0.16 °C |
| COc1nc(Nc2cc(S(C)(=O)=O)ccc2N[C@@H](c2cccc3c2OC(F)(F)O3)c2ncccc2Cl)nc(N2CCNCC2)n1 | 0 °C | -8.88 °C |

| SMILES | ΔTm [1] | ΔTm [2] |
| --- | --- | --- |
| CCc1c(C)nc(-c2ccc(Cl)s2)nc1Nc1ccc(CC(=O)O)cc1 | 1.24 °C | -0.19 °C |
| CCn1c(=O)c(C)cn(Cc2nnc(-c3ccc(F)c(O)c3F)s2)c1=O | -0.64 °C | 0.53 °C |
| COc1ccc2c(c1)OC(C)(C)C(c1ccccc1)C2c1ccc(OCCN2CCCC2)cc1 (stereo not drawn) | -2.59 °C | 0.15 °C |
| CC(=O)N[C@@H](Cc1ccc(O)cc1)C(=O)N[C@H](C(=O)N[C@@H](C)C(=O)N[C@@H](CC(=O)O)C(=O)CCl)C(C)C | -1.75 °C | 0.63 °C |
| CC/C(=C(/c1ccc(/C=C/C(=O)O)cc1)c1ccc2[nH]ncc2c1)c1ccc(F)cc1Cl | 0 °C | -5.4 °C |
| CN(Cc1cccc(-c2ccncc2)c1)C(=O)Oc1ccc(-c2ccc(C(N)=O)cc2)cc1 | 2.09 °C | 0.69 °C |
| CCN(c1cc(-c2ccc(CN3CCOCC3)cc2)cc(C(=O)NCc2c(C)cc(C)[nH]c2=O)c1C)C1CCOCC1 | -1.14 °C | 0.66 °C |
| O=[N+]([O-])c1ccc(CSc2ncnc3c2ncn3[C@@H]2O[C@H](CO)[C@@H](O)[C@H]2O)cc1 | 1.12 °C | 0.22 °C |
| CCC(=O)N1CCOc2c(cc(-c3cc(OC)cc(OC)c3)cc2C(=O)N[C@H]2CCCN(C)C2)C1 | -0.83 °C | 0.29 °C |
| CS(=O)(=O)N1CCN(C(=O)c2cnc3ccc(F)cc3c2-c2ccc(C3(C#N)CC3)cc2)CC1 | 0.38 °C | 0.1 °C |
| Nc1ncnc2nc(-c3ccc(N4CCOCC4)nc3)cc(-c3cccc(Br)c3)c12 | -0.37 °C | 0.52 °C |
| CCCc1nc(C)c2c(C)nc3ccc(OC)nc3n12 | -0.07 °C | -0.53 °C |
| NC(=O)c1cnc(N[C@@H]2CCCC[C@@H]2N)nc1Nc1cccc(-n2nccn2)c1 | -1.09 °C | 0.98 °C |
| CN(C)CCCNC(=O)c1ccc(-c2cc(O)c3ncccc3c2)cc1 | -1.48 °C | 0.49 °C |
| O=C(COc1ccc(-c2oc3cc(O)c(C(=O)O)cc3c2C#Cc2cccc(Cl)c2)cc1)NC1CC1 | -1.44 °C | 0.52 °C |
| C[C@]1(c2nc3c(C(N)=O)cccc3[nH]2)CCCN1 | 1.27 °C | -0.4 °C |
| COc1cn(-c2ccc(-n3cccn3)cc2F)nc(-c2ccnn2-c2ccccc2)c1=O | 1.13 °C | 0.54 °C |
| COc1cc([C@@H]2Oc3c(O)cc([C@H]4Oc5cc(O)cc(O)c5C(=O)[C@@H]4O)cc3[C@H]2CO)ccc1O | 2.27 °C | -0.46 °C |
| C=C(C)[C@@H](CC=C(C)C)C[C@@]12C[C@@H](CC=C(C)C)C(C)(C)[C@@](CC=C(C)C)(C(=O)C(C(=O)c3ccc(O)c(O)c3)=C1O)C2=O | -4.72 °C | -5.95 °C |
| CCC[C@@H]1CNCc2c1[nH]c(=O)c(C#N)c2N1CCC2(CC1)CC2 | -1.25 °C | 0.64 °C |

| SMILES | ΔTm [1] | ΔTm [2] |
| --- | --- | --- |
| COc1cccc(OC)c1S(=O)(=O)Nc1noc2cc(Cn3cccn3)cc(OC)c12 | -0.57 °C | -3.46 °C |
| CN(Cc1ccccc1)c1ccc2cc(C(=O)O)c(=O)oc2c1 | 0.71 °C | 0.34 °C |
| CC(=O)N[C@@H](CC(=O)O)C(=O)N[C@@H](CCC(=O)O)C(=O)N[C@H](C(=O)N[C@@H](CC(=O)O)C(=O)CCl)C(C)C | -1.75 °C | 0.6 °C |
| Cc1noc(C)c1-c1cc(Cl)c(Nc2ccccc2C(=O)O)c(Cl)c1 | -0.15 °C | 0.17 °C |
| Nc1ccccc1NC(=O)CCCCCC(=O)Nc1ccccc1 | -1.41 °C | 0.58 °C |
| C/C(=N\NC(=O)c1cccc(S(=O)(=O)N2CCOCC2)c1)c1cc(Cl)ccc1O | 2.44 °C | -0.21 °C |
| O=C(O)Cn1nnc(-c2ccc(CN(CCCCOc3ccc(CN4CCCC4)cc3)CCc3ccccc3)cc2)n1 | -2.23 °C | -2.96 °C |
| CNC(=O)N1CCc2c(c(N3CCCc4cc(-c5cnn(C)c5)c(C(F)F)cc43)nn2C2CCOCC2)C1 | -0.21 °C | -0.44 °C |
| Cn1c(NCCN(CCO)CCCc2ccc([N+](=O)[O-])cc2)cc(=O)n(C)c1=O | 1.28 °C | 0.47 °C |
| Fc1ccc(CNc2ncnc3ccc(F)cc23)cc1 | 1.26 °C | -0.12 °C |
| COc1ccc(C(CN(C)C)C2(O)CCCCC2)cc1 (stereo not drawn) | -0.6 °C | 0.29 °C |
| Cc1ccc(F)c2cc(C(=O)N[C@@H]3CCC[C@H](N4CC[C@H](N(C)S(C)(=O)=O)C4)C3)[nH]c12 | -0.28 °C | -0.4 °C |
| CC(C)c1ccc(C(=O)N=C(N)N)cc1S(C)(=O)=O | -0.14 °C | -0.34 °C |
| Cc1cc(OCCCNCC(C)(C)C(N)=O)ccc1Cc1c(O[C@@H]2O[C@H](CO)[C@@H](O)[C@H](O)[C@H]2O)n[nH]c1C(C)C | 1.07 °C | -0.15 °C |
| OC[C@H]1O[C@@H](c2ccc(Cl)c(Cc3ccc(O[C@H]4CCOC4)cc3)c2)[C@H](O)[C@@H](O)[C@@H]1O | 1.01 °C | -0.41 °C |
| CCN(CC)C(=O)/C(C#N)=C/c1cc(O)c(O)c([N+](=O)[O-])c1 | 1.31 °C | 0.06 °C |
| O=C(Nc1ccc2[nH]nc(-c3ccncc3)c2c1)[C@@H]1CCN(CC(=O)N2CCN(c3ccc(-c4ncccn4)cc3)CC2)C1 | -0.34 °C | 0.95 °C |
| O=C1COc2c(cccc2[C@@H](O)CNCCN(C(=O)CCNCCc2ccc(Cl)c(Cl)c2)C2CCCCC2)N1 | -1.84 °C | 0.36 °C |
| N#Cc1ccc(-c2csc(NN=C3CCCC3)n2)cc1 | -0.85 °C | 0.36 °C |
